Experimental data published in PubChem BioAssay AID256 (DTP/NCI, 2004).
Values joined by “and” are separate entries in the source; they are usually repeats but may differ in a detail not shown here. Equal values may be shown once. Toxic doses and inconclusive results are not listed. Rule for the calls: active = survival T/C of 150% or more; inactive = T/C below 125% in these data.

System: CD2F1 mice, L1210 leukemia ip, survival T/C
Assay: NCI In Vivo Anticancer Drug Screen. Data for tumor model L1210 Leukemia (intraperitoneal) in CD2F1 (CDF1) mice
Settings: higher = longer survival
Summary of the method: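 Mice carrying a transplanted tumor received test compound or vehicle alone. The value is the measurement in the treated group divided by that in the vehicle-treated control group.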

[1] = endpoint: mean survival time, dose: 100.0 mg/kg/injection, schedule: Q04DX003 (ip), vehicle: saline
[2] = endpoint: mean survival time, dose: 100.0 mg/kg/injection, schedule: Q01DX001 (ip), vehicle: saline
[3] = endpoint: mean survival time, dose: 200.0 mg/kg/injection, schedule: Q01DX001 (ip), vehicle: saline
[4] = endpoint: mean survival time, dose: 400.0 mg/kg/injection, schedule: Q01DX001 (ip), vehicle: saline
[5] = endpoint: mean survival time, dose: 25.0 mg/kg/injection, schedule: Q01DX009 (ip), vehicle: saline with Tween-80
[6] = endpoint: mean survival time, dose: 200.0 mg/kg/injection, schedule: Q04DX003 (ip), vehicle: saline
[7] = endpoint: mean survival time, dose: 400.0 mg/kg/injection, schedule: Q04DX003 (ip), vehicle: saline
[8] = endpoint: mean survival time, dose: 100.0 mg/kg/injection, schedule: Q04DX003 (ip), vehicle: saline with Tween-80
[9] = endpoint: mean survival time, dose: 200.0 mg/kg/injection, schedule: Q04DX003 (ip), vehicle: saline with Tween-80
[10] = endpoint: mean survival time, dose: 400.0 mg/kg/injection, schedule: Q04DX003 (ip), vehicle: saline with Tween-80
[11] = endpoint: mean survival time, dose: 100.0 mg/kg/injection, schedule: Q01DX009 (ip), vehicle: saline with Tween-80
[12] = endpoint: mean survival time, dose: 200.0 mg/kg/injection, schedule: Q01DX009 (ip), vehicle: saline with Tween-80
[13] = endpoint: mean survival time, dose: 400.0 mg/kg/injection, schedule: Q01DX009 (ip), vehicle: saline with Tween-80
[14] = endpoint: mean survival time, dose: 200.0 mg/kg/injection, schedule: Q01DX009 (ip), vehicle: Klucel (hydroxypropylcellulose) (HPC)
[15] = endpoint: mean survival time, dose: 100.0 mg/kg/injection, schedule: Q01DX001 (ip), vehicle: saline with Tween-80
[16] = endpoint: mean survival time, dose: 100.0 mg/kg/injection, schedule: Q04DX002 (ip), vehicle: saline with Tween-80
[17] = endpoint: mean survival time, dose: 200.0 mg/kg/injection, schedule: Q04DX002 (ip), vehicle: saline with Tween-80
[18] = endpoint: mean survival time, dose: 400.0 mg/kg/injection, schedule: Q04DX002 (ip), vehicle: saline with Tween-80

Measured: T/C

C[N+](C)(C)CCOC(=O)c1cc(CBr)cc(CBr)c1
inactive: [1] 103 % of control

O=C(NCC1CCCC1)c1ccccc1
inactive: [2] 95 % of control | [3] 97 % of control | [4] 89 % of control

CCC1(O)C(=O)OCc2c1cc1n(c2=O)Cc2cc3ccc(/C=N/N=C(N)N)cc3nc2-1 (stereo not given)
inactive: endpoint: median survival time, dose: 10.0 mg/kg/injection, schedule: Q04DX002 (ip), vehicle: saline with Tween-80 106 % of control | endpoint: median survival time, dose: 20.0 mg/kg/injection, schedule: Q04DX002 (ip), vehicle: saline with Tween-80 113 % of control | endpoint: median survival time, dose: 40.0 mg/kg/injection, schedule: Q04DX002 (ip), vehicle: saline with Tween-80 102 % of control | endpoint: median survival time, dose: 80.0 mg/kg/injection, schedule: Q04DX002 (ip), vehicle: saline with Tween-80 102 % of control

O=C1OCC(Cl)=C1Cl
inactive: endpoint: mean survival time, dose: 6.25 mg/kg/injection, schedule: Q01DX009 (ip), vehicle: saline with Tween-80 96 % of control | endpoint: mean survival time, dose: 12.5 mg/kg/injection, schedule: Q01DX009 (ip), vehicle: saline with Tween-80 94 % of control | [5] 98 % of control

CC1=C(/C=C/C(O)CC(O)(C(F)(F)F)C(F)(F)F)C(C)(C)CCC1 (stereo not given)
inactive: [1] 107 % of control | [6] 98 % of control | [7] 110 % of control

Cc1cc(NC(=O)SCCOC(=O)COc2ccc(Cl)cc2)ccc1Cl
inactive: [8] 91 % of control | [9] 91 % of control | [10] 89 % of control

Nc1c[n+]([O-])cc2ccccc12
inactive: [8] 94 % of control | [9] 94 % of control

O=C(O)CCc1ccccc1CC(=O)O
inactive: [8] 98 % of control | [9] 98 % of control | [10] 97 % of control

CC1(C)C2CCC1(CS(=O)(=O)O)C(=O)C2Br.[Ag] (stereo not given)
inactive: endpoint: mean survival time, dose: 100.0 mg/kg/injection, schedule: Q04DX003 (ip), vehicle: acetone 96 % of control

CCOC(=O)c1c(C)csc1NC(C)=O
inactive: [11] 108 % of control | [8] 96 % of control | [12] 97 % of control | [9] 98 % of control | [13] 90 % of control | [10] 93 % of control

Nc1ncn[nH]1
inactive: [14] 95 % of control | endpoint: mean survival time, dose: 400.0 mg/kg/injection, schedule: Q01DX009 (ip), vehicle: Klucel (hydroxypropylcellulose) (HPC) 106 % of control

CCOCCC#N
inactive: endpoint: mean survival time, dose: 50.0 mg/kg/injection, schedule: Q01DX009 (ip), vehicle: Klucel (hydroxypropylcellulose) (HPC) 102 % of control | endpoint: mean survival time, dose: 100.0 mg/kg/injection, schedule: Q01DX009 (ip), vehicle: Klucel (hydroxypropylcellulose) (HPC) 102 % of control | [14] 102 % of control

C=CC[P+](c1ccccc1)(c1ccccc1)c1ccccc1
inactive: endpoint: mean survival time, dose: 6.25 mg/kg/injection, schedule: Q01DX001 (ip), vehicle: saline 101 % of control | endpoint: mean survival time, dose: 12.5 mg/kg/injection, schedule: Q01DX001 (ip), vehicle: saline 100 % of control and 112 % of control | endpoint: mean survival time, dose: 25.0 mg/kg/injection, schedule: Q01DX001 (ip), vehicle: saline 96 % of control and 103 % of control

O=c1[nH]c(=O)n(C2OC(CO)C3OP(=O)(C45CC6CC(CC(C6)C4)C5)OC32)cc1Br (stereo not given)
inactive: endpoint: mean survival time, dose: 12.5 mg/kg/injection, schedule: Q01DX005 (ip), vehicle: other 93 % of control | endpoint: mean survival time, dose: 25.0 mg/kg/injection, schedule: Q01DX005 (ip), vehicle: other 97 % of control | endpoint: mean survival time, dose: 50.0 mg/kg/injection, schedule: Q01DX005 (ip), vehicle: other 93 % of control | endpoint: mean survival time, dose: 100.0 mg/kg/injection, schedule: Q01DX005 (ip), vehicle: other 93 % of control | endpoint: mean survival time, dose: 200.0 mg/kg/injection, schedule: Q01DX005 (ip), vehicle: other 93 % of control

C1CC[N-]CC1.C1CC[N-]CC1.C1CC[N-]CC1.C1CC[N-]CC1.N#C[S-].N#C[S-].[Ni]
inactive: endpoint: mean survival time, dose: 10.0 mg/kg/injection, schedule: Q04DX003 (ip), vehicle: Klucel (hydroxypropylcellulose) (HPC) 90 % of control | endpoint: mean survival time, dose: 20.0 mg/kg/injection, schedule: Q04DX003 (ip), vehicle: Klucel (hydroxypropylcellulose) (HPC) 91 % of control | endpoint: mean survival time, dose: 40.0 mg/kg/injection, schedule: Q04DX003 (ip), vehicle: Klucel (hydroxypropylcellulose) (HPC) 96 % of control

c1ccc(CC23CN(C4CCCCC4)CC24N(c2ccccc23)C23CN(C5CCCCC5)CC2(Cc2ccccc2)c2ccccc2N43)cc1 (stereo not given)
inactive: [15] 90 % of control

CCc1ccc(C(=O)CCC(=O)O)cc1
inactive: [16] 98 % of control | [17] 95 % of control | [18] 102 % of control

Clc1ccc(N=C/C=C/c2ccccc2)cc1
inactive: endpoint: mean survival time, dose: 25.0 mg/kg/injection, schedule: Q01DX009 (ip), vehicle: other 101 % of control | endpoint: mean survival time, dose: 50.0 mg/kg/injection, schedule: Q01DX009 (ip), vehicle: other 97 % of control | endpoint: mean survival time, dose: 100.0 mg/kg/injection, schedule: Q01DX009 (ip), vehicle: other 95 % of control | endpoint: mean survival time, dose: 100.0 mg/kg/injection, schedule: Q04DX003 (ip), vehicle: other 87 % of control | endpoint: mean survival time, dose: 400.0 mg/kg/injection, schedule: Q04DX003 (ip), vehicle: other 89 % of control

CCOC(=O)N1CCc2nc3cc(OC)ccc3cc21
inactive: [15] 103 % of control | endpoint: mean survival time, dose: 200.0 mg/kg/injection, schedule: Q01DX001 (ip), vehicle: saline with Tween-80 98 % of control | endpoint: mean survival time, dose: 400.0 mg/kg/injection, schedule: Q01DX001 (ip), vehicle: saline with Tween-80 98 % of control

c1cc2c(cc1CC1CCNC1)OCO2 (stereo not given)
inactive: endpoint: mean survival time, dose: 5.0 mg/kg/injection, schedule: Q01DX001 (ip), vehicle: saline 103 % of control | endpoint: mean survival time, dose: 5.0 mg/kg/injection, schedule: Q01DX009 (ip), vehicle: saline sonified 100 % of control | endpoint: mean survival time, dose: 5.0 mg/kg/injection, schedule: Q04DX003 (ip), vehicle: saline 101 % of control | endpoint: mean survival time, dose: 10.0 mg/kg/injection, schedule: Q01DX001 (ip), vehicle: saline 103 % of control | endpoint: mean survival time, dose: 10.0 mg/kg/injection, schedule: Q01DX009 (ip), vehicle: saline sonified 91 % of control | endpoint: mean survival time, dose: 10.0 mg/kg/injection, schedule: Q04DX003 (ip), vehicle: saline 102 % of control | endpoint: mean survival time, dose: 20.0 mg/kg/injection, schedule: Q01DX001 (ip), vehicle: saline 98 % of control | endpoint: mean survival time, dose: 20.0 mg/kg/injection, schedule: Q01DX009 (ip), vehicle: saline sonified 100 % of control | endpoint: mean survival time, dose: 20.0 mg/kg/injection, schedule: Q04DX003 (ip), vehicle: saline 101 % of control

CNC(=S)/N=c1/scc(C)n1C
inactive: [16] 91 % of control | [17] 91 % of control | [18] 111 % of control

C1CN2CCOB(O1)OCC2
inactive: [1] 94 % of control | [6] 98 % of control | [7] 93 % of control

CC1(C)C(C2CCCC[N+]2=O)CS1(=O)=O (stereo not given)
inactive: [2] 100 % of control | [1] 101 % of control | [3] 100 % of control | [6] 103 % of control | [4] 96 % of control | [7] 105 % of control

O=[N+]([O-])c1ccc(Nc2ccc(Br)cc2)c([N+](=O)[O-])c1
inactive: [8] 95 % of control | [9] 93 % of control

CCC1Cc2c([nH]c(=O)n(C)c2=O)O1 (stereo not given)
inactive: [2] 97 % of control | [3] 97 % of control | [4] 97 % of control

O=C(Nc1ccccc1)c1ccccc1C(O)(c1ccccc1)c1ccc(Cl)cc1 (stereo not given)
inactive: [8] 95 % of control | [9] 95 % of control | [10] 97 % of control

N#CCCN1CCS(=O)(=O)C1=O
inactive: endpoint: mean survival time, dose: 19.0 mg/kg/injection, schedule: Q01DX001 (ip), vehicle: other 107 % of control | endpoint: mean survival time, dose: 38.0 mg/kg/injection, schedule: Q01DX001 (ip), vehicle: other 115 % of control | endpoint: mean survival time, dose: 75.0 mg/kg/injection, schedule: Q01DX001 (ip), vehicle: other 112 % of control | endpoint: mean survival time, dose: 150.0 mg/kg/injection, schedule: Q01DX001 (ip), vehicle: other 117 % of control and 109 % of control

CN=Cc1ccc(OC)cc1
inactive: [5] 116 % of control | endpoint: mean survival time, dose: 50.0 mg/kg/injection, schedule: Q01DX009 (ip), vehicle: saline with Tween-80 96 % of control | [11] 102 % of control | [8] 94 % of control

O=c1c([N+](=O)[O-])cn(O)cc1[N+](=O)[O-]
inactive: endpoint: mean survival time, dose: 100.0 mg/kg/injection, schedule: Q01DX001 (ip), vehicle: alkali diluted with saline 100 % of control | endpoint: mean survival time, dose: 200.0 mg/kg/injection, schedule: Q01DX001 (ip), vehicle: alkali diluted with saline 94 % of control | endpoint: mean survival time, dose: 400.0 mg/kg/injection, schedule: Q01DX001 (ip), vehicle: alkali diluted with saline 100 % of control

CC1(C)CCC2(CC1)CC(=O)OC2=O
inactive: [11] 109 % of control | [12] 105 % of control | [13] 100 % of control
